PubChem BioAssay (NCI)
“And” between values parts separate entries of the source, which are not always exact repeats. Equal entries are not always repeated.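 Values below derive from 48-hour exposures of cells grown in 96-well plates, with endpoints linearly interpolated between the two concentrations bracketing the appropriate inhibition level. GI50 = concentration required for 50% inhibition of growth. TGI: total growth inhibition.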

What was measured:
Experiment in all cases: NCI anticancer screen, dose series, 48 h
DLD-1 colon = system: DLD-1 colon
SNB-78 CNS = system: SNB-78 CNS
NCI-H23 lung = system: NCI-H23 lung
EKVX NSCLC = system: EKVX NSCLC
KM20L2 colon = system: KM20L2 colon
TK-10 renal = system: TK-10 renal
NCI-H460 lung = system: NCI-H460 lung
UACC-62 melanoma = system: UACC-62 melanoma
M19-MEL melanoma = system: M19-MEL melanoma
M14 melanoma = system: M14 melanoma

Row | SMILES | TGI (DLD-1 colon) | TGI (SNB-78 CNS) | TGI (NCI-H23 lung) | TGI (EKVX NSCLC) | TGI (KM20L2 colon) | TGI (TK-10 renal) | TGI (NCI-H460 lung) | TGI (UACC-62 melanoma) | TGI (M19-MEL melanoma) | TGI (M14 melanoma) | GI50 (DLD-1 colon) | GI50 (SNB-78 CNS) | GI50 (NCI-H23 lung) | GI50 (EKVX NSCLC) | GI50 (TK-10 renal) | GI50 (NCI-H460 lung) | GI50 (UACC-62 melanoma) | GI50 (M19-MEL melanoma) | GI50 (M14 melanoma)
1 | O=C(O)/C(Cl)=C(\Cl)Nc1cccc(C(F)(F)F)c1 | > 100 µM | > 100 µM | > 100 µM | > 100 µM | > 100 µM | > 100 µM | > 100 µM | > 100 µM | > 100 µM | 33.4 µM |  |  |  |  |  |  |  |  | 
2 | CN1CCC23c4c5ccc(O)c4OC2C(=NN=C2CCC4(O)C6Cc7ccc(O)c8c7C4(CCN6C)C2O8)CCC3(O)C1C5 (stereo unspecified) | > 100 µM |  | > 100 µM | > 100 µM | > 100 µM | > 100 µM | > 100 µM | > 100 µM | > 100 µM | > 100 µM |  |  |  |  |  |  |  |  | 
3 | COC(=O)C1=CC(O)CCC1c1ccc(OC)cc1 (stereo unspecified) | > 100 µM | > 100 µM | > 100 µM | > 100 µM | > 100 µM | > 100 µM | > 100 µM | > 100 µM | > 100 µM | > 100 µM |  |  |  |  |  |  |  |  | 
4 | CCc1ccccc1NC(=O)/C(CC(=O)c1c(C)n([O-])c2ccccc2[n+]1=O)=N\NS(=O)(=O)c1ccc(C)cc1 | > 100 µM | > 100 µM | > 100 µM | > 100 µM | > 100 µM | > 100 µM | > 100 µM | 67 µM | 46.7 µM | > 100 µM |  |  |  |  |  |  |  |  | 
5 | COc1cc(C(=O)C/C(CCC(=O)Nc2ccccc2[N+](=O)[O-])=N\NC(=O)C(N)=O)ccc1O | > 100 µM | > 100 µM | > 100 µM | > 100 µM | > 100 µM | > 100 µM | > 100 µM | > 100 µM | > 100 µM | > 100 µM |  |  |  |  |  |  |  |  | 
6 | O=C(OC(C(=O)O)C(OC(=O)c1ccccc1)C(=O)O)c1ccccc1 (stereo unspecified) (tested in a mixture with another compound) | > 100 µM | > 100 µM | > 100 µM and 84.2 µM | > 100 µM | > 100 µM and 88.7 µM | > 100 µM | > 100 µM | > 100 µM | > 100 µM | > 100 µM |  |  |  |  |  |  |  |  | 
7 | COc1ccc2cc(C(=O)c3ccccc3C(=O)O)ccc2c1 | > 100 µM |  | > 100 µM | > 100 µM | > 100 µM | > 100 µM | > 100 µM | > 100 µM | > 100 µM | > 100 µM |  |  |  |  |  |  |  |  | 
8 | Cc1nc(NC(=S)NC(=O)c2ccc(Cl)c(Cl)c2)sc1C(=O)/C=C/c1ccccc1[N+](=O)[O-] | > 100 µM | 91.2 µM | 44.9 µM | 91.6 µM | 35.9 µM | 71.3 µM | > 100 µM | 28.5 µM | 79.7 µM | 51.5 µM |  |  |  |  |  |  |  |  | 
9 | COC1=CC(=O)c2ccc(C(C)C)cc2C1(C)C1=NC(C)(C)CO1 (stereo unspecified) | > 100 µM |  | > 100 µM | > 100 µM | > 100 µM | > 100 µM | > 100 µM | > 100 µM | > 100 µM | > 100 µM |  |  |  |  |  |  |  |  | 
10 | COc1ccccc1/C=C/C(=O)c1sc(-c2cccnc2)nc1C | > 100 µM | > 100 µM | > 100 µM | > 100 µM | > 100 µM | > 100 µM | > 100 µM | > 100 µM | > 100 µM |  |  |  |  |  |  |  |  |  | 
11 | CCCCCCCC[N+](C)(C)Cc1ccc(C[N+](C)(C)CCCCCCCC)cc1 | > 100 µM | > 100 µM | 47 µM | > 100 µM | > 100 µM | > 100 µM | > 100 µM | > 100 µM | > 100 µM | > 100 µM |  |  |  |  |  |  |  |  | 
12 | C=C(C)C(=O)NC(N)=NC#N | 261 µM | 398 µM | 301 µM | > 90 µM and 392 µM | 232 µM | 98.6 µM and 126 µM | 306 µM | > 81.7 µM and 230 µM | 50.2 µM and 166 µM | 47.8 µM and 131 µM | 111 µM | 167 µM | 147 µM | 165 µM | 33 µM | 163 µM | 87 µM | 42.8 µM | 21 µM
13 | CC(=O)[O-].CC(=O)[O-].[Mn+2].c1ccc(/C(=N\Nc2ccccn2)c2ccccn2)cc1 | 22.7 µM |  | 16.7 µM | 19.9 µM | 15.8 µM | 54.6 µM | 1.14 µM | 1.13 µM | 14.3 µM | 1.38 µM |  |  | 0.00784 µM | 0.0187 µM |  |  |  |  | 0.0349 µM
14 | O=c1c(O)c(-c2ccc(O)c(O)c2)oc2cc(O)ccc12 | > 100 µM | 67.2 µM | 31.8 µM | 65.8 µM | 73.2 µM | > 88.8 µM | 29.2 µM | 39.5 µM | > 88.1 µM | 44 µM |  |  |  |  |  |  |  |  | 
15 | CC1=CC2=C(OCO1)C(=O)c1ccccc1C2=O | 81.9 µM | > 100 µM | 8.06 µM | > 100 µM | 46.6 µM | > 81.3 µM | 19.1 µM | 9.89 µM | 3.58 µM | 8.97 µM |  |  |  |  |  |  |  |  | 
16 | C=C(C)C1CC=C(C(=O)O)CC1 (stereo unspecified) | > 5000 µM |  | 2200 µM | > 5000 µM | > 5000 µM | > 5000 µM | 3950 µM | 1450 µM | 2970 µM | > 5000 µM |  |  |  |  |  |  |  |  | 
17 | COc1ccc2[nH]c3c4c(c5cc(C(C)(C)C)ccc5c3c2c1)C(=O)N(c1ccccc1)C4=O | 30.3 µM | > 100 µM | > 100 µM | > 100 µM | > 100 µM | > 100 µM | > 100 µM | > 100 µM | > 100 µM | > 100 µM |  |  |  |  |  |  |  |  | 
